Assay results from US20240002387A1, “METHOD FOR PREPARING BTK DEGRADING AGENT” (HAISCO PHARMACEUTICALS PTE. LTD., priority 2020, published 2024).
pIC50: −log10 of the molar value.

Tests used:
[1] = molecular target: BTK (Homo sapiens (Human), UniProt Q06187); assay: Detection of BTK degradation in Mino cells; assay type: cell-based
Experimental: Mino human mantle cell lymphoma cell line was purchased from ATCC and cultured under the following conditions: RPMI-1640+15% FBS+1% double antibody in a 37° C., 5% CO2 incubator. Cells were plated in a 6-well plate, with 5×10^5 cells/well. After plating, the compounds at different concentrations were added and cultured in an incubator at 37° C. under 5% CO2 for 48 hours. After culturing, the cells were collected, and RIPA lysis buffer (Beyotime, Cat. P0013B) was added. The cells were lysed on ice for 15 minutes and centrifuged at 12000 rpm at 4° C. for 10 minutes. The protein sample of the supernatant was collected, and the protein was quantified by using the BCA kit (Beyotime, Cat. P0009), and then the protein was diluted to 0.25 mg/mL. The expressions of BTK (CST, Cat. 8547S) and the internal reference (3-actin (CST, Cat. 3700S) were detected using a fully automated western blot quantitative analyzer (Proteinsimple) with a kit (Protein simple, Cat. SM-W004). The expression level of BTK relative to the internal reference was calculated using Compass software, and the DC50 value was calculated using Origen9.2 software according to formula (1). Specifically, the BTK administration denoted the expression level of BTK in administration groups at different doses, and the BTK vehicle denoted the expression level of BTK in the vehicle control group. […]

[2] = molecular target: BTK C481S (Homo sapiens (Human), UniProt Q06187, C481S); assay: In vitro kinase detection, BTK C481S; assay type: biochemical
Experimental: (§1) Kinases BTK wt (Carna, Cat. No. 08-180) and BTK C481S (Cama, Cat. No. 08-547) were prepared into a 2.5× kinase solution, and the substrates FAM-P2 (GL Biochem, Cat. No. 112394) and ATP (Sigma, Cat. No. A7699-1G) were prepared into a 2.5× substrate solution, respectively. 5 μL of compounds at different concentrations were added to a 384-well plate. 10 μl of 2.5× kinase solution was added, and the resulting mixture was incubated at room temperature for 10 min. 10 μL of 2.5× substrate solution was added, and the mixture was incubated at 28° C. for an appropriate period of time. The reaction was stopped by adding 30 μL of stop buffer, and the detection was carried out by using Caliper EZ reader2. The IC50 value was calculated by using XLFit excel add-in version 5.4.0.8 software. The calculation formula of the inhibition rate was shown in formula (3), wherein max denoted the readout of the DMSO control, min denoted the readout of the negative control, and conversion denoted the readout of the compound

[3] = molecular target: BTK wt (Homo sapiens (Human), UniProt Q06187); assay: In vitro kinase detection, BTK wt; assay type: biochemical
Experimental: as §1

[4] = molecular target: BTK (Mus musculus (Mouse), UniProt P35991); assay: Detection of BTK protein degradation in spleen of mice; assay type: in vivo
Experimental: Female ICR mice, 6-8 weeks old, were purchased from BEIJING VITAL RIVER LABORATORY ANIMAL TECHNOLOGY CO., LTD., and the experiment was started after 3 days of acclimatization. After intragastric administration of different doses of the compound for 3 consecutive days, the spleen of mice was taken, the spleen cells were collected, and RIPA lysis buffer (Beyotime, Cat. P0013B) was added. The cells were lysed on ice for 15 minutes and centrifuged at 12000 rpm at 4° C. for 10 minutes. The protein sample of the supernatant was collected, the protein was quantified by using the BCA kit (Beyotime, Cat. P0009), and then the protein was diluted to 0.25 mg/mL. The expressions of BTK (CST, Cat. 8547S) and the internal reference (3-actin (CST, Cat. 3700S) were detected using a fully automated western blot quantitative analyzer (Proteinsimple). The expression level of BTK relative to the internal reference was calculated using Compass software, and the DD50 value was calculated using Origen9.2 software according to formula (2). Specifically, the BTKadministration denoted the expression level of BTK in administration groups at different doses, and the BTKvehicle denoted the expression level of BTK in the vehicle control group.
BTK %=BTKadministration/BTKvehicle×100 formula (2)

BTK C481S, sequence (Q06187 whole entry C481S): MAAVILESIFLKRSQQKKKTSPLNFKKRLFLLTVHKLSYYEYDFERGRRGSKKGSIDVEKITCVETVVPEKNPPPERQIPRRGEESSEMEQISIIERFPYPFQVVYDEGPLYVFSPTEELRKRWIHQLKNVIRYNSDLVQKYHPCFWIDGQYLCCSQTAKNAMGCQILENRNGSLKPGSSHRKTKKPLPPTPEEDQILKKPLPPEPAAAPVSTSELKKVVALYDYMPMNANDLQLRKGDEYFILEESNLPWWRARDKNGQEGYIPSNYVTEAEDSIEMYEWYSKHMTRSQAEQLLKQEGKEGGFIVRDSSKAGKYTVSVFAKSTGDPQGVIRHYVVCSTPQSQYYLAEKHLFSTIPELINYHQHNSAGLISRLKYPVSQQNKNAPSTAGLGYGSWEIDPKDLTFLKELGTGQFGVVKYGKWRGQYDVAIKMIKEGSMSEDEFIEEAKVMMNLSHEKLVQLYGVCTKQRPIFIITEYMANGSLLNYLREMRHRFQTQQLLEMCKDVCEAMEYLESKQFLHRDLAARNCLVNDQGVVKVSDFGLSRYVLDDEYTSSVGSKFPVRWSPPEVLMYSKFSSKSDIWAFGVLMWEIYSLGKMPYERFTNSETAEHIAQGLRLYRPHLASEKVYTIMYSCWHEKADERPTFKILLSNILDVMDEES
BTK wt, sequence (Q06187 whole entry): as the sequence (Q06187 whole entry C481S) above, with S481C counted along it
BTK (Homo sapiens (Human), UniProt Q06187), sequence (Q06187 whole entry): as the sequence (Q06187 whole entry C481S) above, with S481C counted along it
BTK (Mus musculus (Mouse), UniProt P35991), sequence (P35991 whole entry): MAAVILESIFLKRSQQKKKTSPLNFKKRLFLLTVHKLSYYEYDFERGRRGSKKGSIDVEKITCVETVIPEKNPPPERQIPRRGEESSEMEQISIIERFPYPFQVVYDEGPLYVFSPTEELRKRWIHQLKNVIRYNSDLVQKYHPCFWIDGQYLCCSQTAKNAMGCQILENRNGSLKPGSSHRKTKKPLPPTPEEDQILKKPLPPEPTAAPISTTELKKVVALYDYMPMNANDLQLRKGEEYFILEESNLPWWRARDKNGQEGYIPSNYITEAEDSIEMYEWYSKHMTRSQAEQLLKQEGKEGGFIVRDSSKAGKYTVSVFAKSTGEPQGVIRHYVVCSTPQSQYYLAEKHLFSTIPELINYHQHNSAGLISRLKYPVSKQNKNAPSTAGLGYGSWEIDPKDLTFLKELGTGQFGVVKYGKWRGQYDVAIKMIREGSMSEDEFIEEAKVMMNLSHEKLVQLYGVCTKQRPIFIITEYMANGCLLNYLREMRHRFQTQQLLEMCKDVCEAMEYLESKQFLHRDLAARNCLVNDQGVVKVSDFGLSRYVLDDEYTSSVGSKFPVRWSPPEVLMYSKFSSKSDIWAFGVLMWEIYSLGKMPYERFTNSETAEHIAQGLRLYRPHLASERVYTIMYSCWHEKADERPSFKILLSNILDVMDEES

Nc1ncnc2c1c(-c1ccc(Oc3ccccc3)cc1)nn2C1CCN(C2CN(C3CN(c4ccc5c(c4)C(=O)N(C4CCC(=O)NC4=O)C5=O)C3)C2)CC1 (stereo not shown) [Compound 1, 5-[3-[3-[4-[4-amino-3-(4-phenoxyphenyl]pyrazolo[3,4-d]pyrimidin-1-yl]-1-piperidyl]azetidin-1-yl]azetidin-1-yl]-2-(2,6-dioxo-3-piperidyl)isoindoline-1,3-dione]
degradation effect on BTK in Mino cells (conclusion) [1]: significant degradation effect
DC50 ([1]; 48 hours, western blot): 10.9 nM
pIC50 [2]: 8.10
inhibitory effect on BTK C481S kinase (conclusion) [2]: significant inhibitory effect
pIC50 [3]: 8.20
inhibitory effect on BTK wt kinase (conclusion) [3]: significant inhibitory effect
degradation effect on BTK proteins in spleen of mice (conclusion) [4]: significant degradation effect
